Reference: patent US6806292B2, “Substituted imide derivatives” (Bayer Aktiengesellschaft, priority 2000, dated 2004)

Key:
Meloidogyne incognita = test: Meloidogyne test; assay type: in vivo; details: 20 ppm, after 2 weeks, lettuce in sand
Protocol: To produce a suitable preparation of active compound, 1 part by weight of active compound is mixed with the stated amounts of solvent and emulsifier, and the concentrate is diluted with water to the desired concentration.
Containers are filled with sand, solution of active compound, Meloidogyne incognita egg/larvae suspension and lettuce seeds. The lettuce seeds germinate and the plants develop. Galls form on the roots.
After 2 weeks, the nematicidal activity is determined by the gall formation in %. 100% means that no galls have been found; 0% activity means that the number of galls on the treated plants corresponds to that of the untreated control.

[1] = log P determination by HPLC (EEC directive 79/831 Annex V.A8); assay type: physicochemical; details: pH 2.3; HPLC gradient method, acetonitrile/0.1% aqueous phosphoric acid
Protocol: [The log P values were determined in accordance with EEC directive 79/831 Annex V.A8 by HPLC (gradient method, acetonitrile/0.1% aqueous phosphoric acid)]

- chromatographic logP [1]: 2.19
SMILES: C/C(=N\C#N)NC(C)C1CCCCC1 (stereo not drawn) [Example 1, R-(−)-N-cyano-N′-cyclohexyl-eth-1-yl-ethane-imid-amide]
- kill (nematicidal activity by gall formation) (Meloidogyne incognita): 100%
